Structures can show the parent of a compound that is named as a salt. Blank lines part the entries; values can stand above or below the compound they belong to.
What was measured:
[1] = system: hairless mouse dorsal skin (epidermal permeability barrier function disrupted by UVB); experiment: Test 1 epidermal permeability barrier function amelioration test (TEWL after UVB); type: in vivo, hairless mice (Hos: Hr-1); settings: for TEWL change rate 3rd day / TEWL change rate 4th day: mean values
Protocol: An effect of improving epidermal permeability barrier function by applying the agents on the skin of which epidermal permeability barrier function has been disrupted was evaluated by the following test method. Male hairless mice (Hos: Hr-1) of 10 weeks old at the beginning of the test were used with each 5 mice per group. Transepidermal water loss (TEWL) was measured as follows using a continuous perspiration measurement device, Hydrograph AMU-100 (ex K & S Co., Ltd.). […] The amount of water vapor in the nitrogen gas was measured before the gas was fed to the capsule and after it was recovered from the capsule. […] The TEWL of the hairless mouse dorsal skin was first measured at the beginning of the test. Subsequently, 0.05 mL of each sample was applied on an area of approximately 2.5 cm diameter in the dorsal skin of the hairless mice once a day from Monday to Friday (pre-application). Then, on the third day from the last day of the pre-application, the skin was irradiated once with ultraviolet B ray (UVB) at a dose of 0.15 J/cm^2. […] TEWL changes with the degree of disruption of the epidermal permeability barrier function. A higher value of TEWL change rate implies a greater degree of disruption of the epidermal permeability barrier function. In the case of the application of the base alone, disruption in the epidermal permeability barrier function by UVB was similar to that in the case of non-application.

[2] = system: skin of Hartley strain guinea pig; experiment: Test 2 safety (sensitization) maximization test; type: in vivo; settings: for Positivity: 3% induction, examined after 48 hours; for sensitizing potential: in words
Protocol: Safety (sensitization) was evaluated by a maximization test. An area of 4×6 cm^2 of skin on the scapula of a Hartley strain guinea pig (female) weighing 350 to 400 g was shaved and given intradermal injections with each three injections in two lines according to the following procedures: • (1)each 0.05 mL of Freunds' Complete Adjuvant (hereinafter simply called FCA) was intradermally injected at each one spot in the right and left sites. • (2) each 0.05 mL of a 3% fumaric acid diester derivative solution in ethanol of as a test sample was intradermally injected at another each one spot in the right and left sites. • (3) to a 6% fumaric acid diester derivative solution in FCA as a test sample, the same amount of sterilized water was added and resultant emulsified solution was intradermally injected at a right side and a left side sites in an amount of 0.05 mL.
At one week after the aforementioned procedures, the skin of the same sites was shaved and 10% of sodium lauryl sulfate in vaseline was applied to cause light inflammation. After 24 hours from the application, 0.2 mL of a 3% fumaric diester derivative solution in ethanol as a test sample, which was applied on a piece of gauze, was patched close on the same sites for 48 hours. On the 21st day after the intradermal injection, the abdominal area was shaved, to which a solution of a fumaric acid diester derivative in ethanolas a test sample, which was applied in a piece of gauze, was patched close for 24 hours. The symptoms in the skin were visually examined according to the following criteria after 48 hours.

[3] = system: dorsal skin of hairless mice; experiment: Test Example 8 inhibition of dry skin induced by retinoic acid (TEWL); type: in vivo
Protocol: The effect of inhibiting dry skin was investigated by the following test method in which the present fumarate was applied to the dry skin induced by retinoic acid. Hairless mice of 10 weeks old at the beginning of the test were used with five mice per group. […] Subsequently, 0.05 mL of a 0.05% retinoic acid solution in 50% ethanol aqueous solution was applied once a day for 4 days. During these 4 days, retinoic acid was applied in the morning, and, some hours later in the afternoon, the sample was applied. […] In Comparative Example 5, a control sample comprising the base alone was used instead of the sample. In Comparative Example 6, the base was always applied. The TEWL values after the application of the samples are as shown below.

[4] = system: HB-EGF mRNA; experiment: Test Example 4 HB-EGF expression rate in keratinocytes (Northern blotting); type: cell-based, human; settings: for Amount of mRNA, % relative to the control, HB-EGF: 24 hours, human keratinocytes
Description: (§1) The HB-EGF expression rates were investigated by the following test methods where the compounds of the present invention were applied on the keratinocytes. Cultured keratinocytes of human epidermis origin, commercially available from Kurabo Corporation, were used. Keratinocyte susupension was adjusted to a concentration of 400×10^4 units/mL on an MCDB153 culture medium supplemented with BPE (bovine pituitary extract), insulin, ethanolamine, phosphoethanolamine, and hydrocortisone as growth promotors. Four milliliters of the cell suspension was inoculated to a 60 mm plate (ex Falcon Corporation). […] This plate was subjected to static culturing at 37° C. for 24 hours under an atmosphere consisting of 95% (v/v) air and 5% (v/v) carbon dioxide gas. Using a QIAGEN™ RNA kit, whole mRNA was extracted. […] The amount of each mRNA per total in the absence of the fumarate was measured as the control. The amount of mRNA in the presence of the fumarate was expressed in % relative to those of the control.

[5] = system: G3PDH mRNA; experiment: Test Example 6 G3PDH mRNA in keratinocytes; type: cell-based; settings: 24 hours, human keratinocytes
Protocol: (§2) The amount of expression of amphiregulin in the keratinocytes was determined by the following test method. Cultured keratinocytes of human epidermis origin (ex Kurabo Corporation) were used. Keratinocyte suspension was adjusted to a concentration of 150×10^4 units/mL in an MCDB153 culture medium supplemented with BPE (bovine pituitary extract), insulin, ethanolamine, phosphoethanolamine, and hydrocortisone as growth promotors. Four milliliters of the cell suspension was inoculated to a 60 mm plate (ex Falcon Corporation). […] This plate was subjected to static culturing at 37° C. for 24 hours under an atmosphere consisting of 95% (v/v) air and 5% (v/v) carbon dioxide gas. Using a QIAGEN™ RNA kit, whole mRNA was extracted. […] The amount of each mRNA per total in the absence of the fumarate was measured as the control. The amount of mRNA in the presence of the fumarate was expressed in % relative to those of the control. (2) Results

[6] = system: G3PDH mRNA; experiment: Test Example 4 G3PDH mRNA in keratinocytes (Northern blotting); type: cell-based; settings: 24 hours, human keratinocytes
Description: as §1

[7] = system: dorsal skin of aged hairless mice
Protocol: The following test method was used in order to investigate inhibition of reduction in the epidermis thickness when the compound of the present invention was applied on aged skin.
Experimental animals used included 2 groups of aged hairless mice of 33 weeks old at the beginning of the test with each 5 mice per group, and one group of 5 hairless mice of 9 weeks old at the beginning of the test.
A sample was prepared by adding bis(diethylene glycol monoethyl ether) fumarate to a 50% ethanol aqueous solution (base) at a concentration of 0.5%. This sample was applied in an amount of 0.05 mL on the dorsal skin of hairless mice (in a diameter of approximately 2.5 cm) once a day for consecutive 5 days per week followed by 2 days interval. This schedule was repeated for 4 weeks. Subsequently, a portion of the skin was sampled and a frozen section was prepared. The thickness of the epidermis was measured by microscopic observation.

[8] = system: dorsal skin of hairless mice; experiment: Test Example 9 depression of UV-induced epidermal hyperproliferation; type: in vivo; settings: 0.5% in 50% ethanol, 4 weeks pre-application, UVB 0.15 J/cm^2, 4th day after the irradiation; mean values
Protocol: The inhibition of epidermal hyperproliferation was investigated by the following test method in which the present fumarate was applied to the skin where epidermal hyperproliferation had been induced by UV irradiation Hairless mice of 10 weeks old at the beginning of the test were used with 5 mice per group. […] The animals were slaughtered on the 4th day after the irradiation and skin section were made. From the section, tissue section samples were prepared by HE staining. The samples prepared were photographed using an light microscope. In the microscopic photographs, the thickness of the epidermis was measured. Using the epidermis thickness at the beginning of the test as a standard, the mean values were compared between the control group and the treated groups.

[9] = system: amphiregulin mRNA; experiment: Test Example 6 inhibition of the expression of amphiregulin in keratinocytes; type: cell-based; settings: 24 hours, human keratinocytes
Protocol: as §2

[10] = system: amphiregulin mRNA; experiment: Test Example 7 inhibition of amphiregulin expression when used together with retinoic acid; type: cell-based, human; settings: retinoic acid alone 1 μmol/L, 24 hours
Protocol: (§3) The amount of amphireglurin expression in the presence of retinoic acid in the keratinocytes was determined by the following method.
(§4) Cultured keratinocytes of human epidermis origin (ex Kurabo Corporation) were used.
(§5) Keratinocyte suspensions was adjusted to a concentration of 400×10^4 units/mL in an MCDB153 culture medium supplemented with BPE (bovine pituitary extract), insulin, ethanolamine, phosphoethanolamine, and hydrocortisone as growth promotors. Four milliliters of the cell suspension was inoculated to a 60 mm plate (ex Falcon Corporation). Under an atmosphere of 95% (v/v) air and 5% (v/v) carbon dioxide gas, a confluent state was achieved by static culturing at 37° C. for 3 days, while refreshing the culture every other day.
(§6) After removing the culture medium supernatant by suction, the culture medium was replaced with an MCDB 153 culture medium (containing insulin) to which bis(diethylene glycol monoethyl ether) fumarate at a final concentration of 300 μmol/L or dimethyl fumarate at 70 μmol/L, and optionally retinoic acid at 1 μmol/L had been added. This plate was subjected to static culturing at 37° C. for 24 hours under an atmosphere consisting of 95%(v/v) air and 5% (v/v) carbon dioxide gas. Using a QIAGEN™ RNA kit, whole mRNA was extracted.

[11] = system: G3PDH mRNA; experiment: Test Example 7 G3PDH mRNA in keratinocytes with retinoic acid; type: cell-based, human; settings: retinoic acid alone 1 μmol/L, 24 hours
Protocol: as §3, §4, §5, §6

[12] = 0.5% sample 5 days pre-application, then 0.05% retinoic acid once a day for 4 days with sample in the afternoon
[13] = Table 1, concentration 1% in 50% aqueous ethanol, 0.05 mL once a day, 3rd day after UVB 0.15 J/cm^2
[14] = Table 1, concentration 1% in 50% aqueous ethanol, 4th day after UVB 0.15 J/cm^2

Compound: Diphenylethyl fumarate [reference compound]
TEWL change rate 3rd day ([1]; Table 1, concentration printed '.1I' %, 3rd day after UVB): 7.82
TEWL change rate 4th day ([1]; Table 1, concentration printed '.1I' %, 4th day after UVB): 6.57

Compound: CCOC(=O)/C=C/C(=O)OCC [Diethyl fumarate]
Positivity [2]: 90%
sensitizing potential [2]: sensitizating potential

Compound: CCOCCOCCOC(=O)/C=C/C(=O)OCCOCCOCC [bis(diethylene glycol monoethyl ether) fumarate]
Mean value of TEWL [3, 12]: 0.055 mg/cm^2/min.
Amount of mRNA, % relative to the control, HB-EGF ([4]; 300 μmol/L): 380%
induction of HB-EGF expression ([4]; in words, 300 μmol/L): induced the expression of HB-EGF as strongly as dimethyl fumarate
Amount of mRNA, % relative to the control, G3PDH ([5]; 300 μmol/L): 102%
TEWL change rate 3rd day [1, 13]: 3.25
TEWL change rate 4th day [1, 14]: 2.49
TEWL change rate 3rd day ([1]; Table 2, first value column, concentration 0.001%): 7.01
TEWL change rate 3rd day ([1]; Table 2, first value column, concentration 0.01%): 6.46
TEWL change rate 3rd day ([1]; Table 2, first value column, concentration 0.1%): 3.79
TEWL change rate 3rd day ([1]; Table 2, first value column, concentration 1%): 3.62
TEWL change rate 3rd day ([1]; Table 2, second value column, concentration 0.001%): 7.31
TEWL change rate 3rd day ([1]; Table 2, second value column, concentration 0.01%): 6.84
TEWL change rate 3rd day ([1]; Table 2, second value column, concentration 0.1%): 5.21
TEWL change rate 3rd day ([1]; Table 2, second value column, concentration 1%): 4.33
amelioration of epidermal permeability barrier function ([1]; in words, compared to the base alone and diphenylethyl fumarate): clearly reduces disruption in the epidermal permeability barrier function by UVB
Amount of mRNA, % relative to the control, G3PDH ([6]; 300 μmol/L): 98%
Mean values of the epidermis thickness ([7]; 33 weeks old hairless mice, 0.5% in 50% ethanol, 0.05 mL once a day 5 days per week for 4 weeks): 20.96 μm
inhibition of thinning of the epidermis due to aging ([7]; in words, compared to the non-treatment): thinning of the epidermis due to aging was clearly inhibited
Positivity [2]: 0%
sensitizing potential [2]: no sensitizing potential
Thickness of the epidermis [8]: 61.6 μm
Amount of mRNA, % relative to the control, Amphiregulin ([9]; 300 μmol/L): 8%

Mean value of TEWL ([3]; 0.05% retinoic acid once a day for 4 days, base alone instead of the sample (no fumarate)): 0.110 mg/cm^2/min.
Compound: CC1=C(/C=C/C(C)=C/C=C/C(C)=C/C(=O)O)C(C)(C)CCC1 [Retinoic acid]
Amount of mRNA, % relative to the control, Amphiregulin [10]: 300%
Amount of mRNA, % relative to the control, G3PDH [11]: 105%

Compound: COCCOC(=O)/C=C/C(=O)OCCOC [bis(ethylene glycol monomethyl ether) fumarate]
Positivity [2]: 90%
sensitizing potential [2]: sensitizating potential

Compound: COC(=O)/C=C/C(=O)OC [Dimethyl fumarate, reference compound]
Mean value of TEWL [3, 12]: 0.063 mg/cm^2/min.
Amount of mRNA, % relative to the control, HB-EGF ([4]; 50 μmol/L): 470%
Amount of mRNA, % relative to the control, G3PDH ([5]; 70 μmol/L): 98%
TEWL change rate 3rd day [1, 13]: 3.24
TEWL change rate 4th day [1, 14]: 2.50
Amount of mRNA, % relative to the control, G3PDH ([6]; 50 μmol/L): 105%
Thickness of the epidermis [8]: 40.4 μm
Amount of mRNA, % relative to the control, Amphiregulin ([9]; 70 μmol/L): 39%

Source: US7037489B2, “Skin external agents and drugs” (Kanebo Cosmetics, Inc., priority 1999, dated 2006)
